This is an account of results in patent US20090197851A1, “THERAPY AND USE OF COMPOUNDS IN THERAPY” (MAX-DELBRUCK-CENTRUM FUR MOLEKULARE MEDIZIN, priority 1999, published 2009).

Assay [1] concerns monocyte generated cytokine production in response to LPS. To be noted: in the concentrations used; Greve et al. Hepatology 1989; cited from earlier work.
In assay [2] the test system is LPS-mediated TNF and IL6 production in whole blood. As to the kind of experiment: LPS-stimulated cytokine production in whole blood of healthy control subjects (Milenia whole blood assay). To be noted: LPS 50 pg/ml. It is filed as cell-based, human. The method, then:
We have tested the ability of ursodeoxycholic acid (UDCA, FALK Pharma GmbH) to inhibit LPS-mediated TNF production in whole blood of healthy control subjects. Methods: Heparinized whole blood was diluted 1:10 with medium+/-LPS (50 pg/ml), +/-BPI (1 μg/ml), and +/-UDCA ([…]) according to the manufactorer's recommendation ([…] whole blood assay; DPC Biermann, Bad Nauheim, Germany) and incubated for 4 hours at 37° C. In the supernatant, we assessed concentrations of TNF and IL-6 using the semiautomated Immulite system (DPC-Biermann, Bad Nauheim, Germany).

Assay [3] shares this test system. As to the kind of experiment: LPS-stimulated cytokine production in whole blood of patients with cachexia due to liver cirrhosis (in vitro application). The conditions noted are these: 1 mg/ml UDCA, LPS 50 pg/ml, 4 hours. It is filed as cell-based, human. Here is the method: We have tested the ability of ursodeoxycholic acid (UDCA, FALK Pharma GmbH) and BPi to inhibit LPS-mediated TNF production in whole blood of patients with cachexia.
(§1) We studied 4 patients with cachexia due to liver cirrhosis. The patients had all weight loss >7.5% compared to their previous normal weight. […] All patients were studied twice on 2 subsequent days (day “−1” and day “0”), see FIG. 9 to 12.
(§2) Methods: Heparinized whole blood was diluted 1:10 with medium+/−LPS (50 pg/ml), +/−BPI (1 μg/ml), and +/−UDCA (1 μg/ml-1 mg/ml) according to the manufactorer's recommendation (Milenia whole blood assay; DPC Biermann, Bad Nauheim, Germany) and incubated for 4 hours at 37° C. In the supernatant, we assessed concentrations of TNF and IL-6 using the semiautomated Immulite system (DPC-Biermann, Bad Nauheim, Germany).

Assay [4] relates to LPS effects. To be noted: high concentrations of LBP, as seen during the acute phase response; cited from earlier work.
Assay [5] deals with LPS-induced TNF synthesis in monocytes. The assay is described as follows: LPS-induced TNF synthesis in monocytes with pre-incubated serum. It is filed as cell-based, human. Here is the method:
LPS-induced cytokine synthesis can be inhibited by serum lipoproteins. However, this is not easily seen experimentally, as it needs a certain pre-incubation procedure (18 hours at 37° C.) that we developed in our laboratory.
Methodology for example 4, 5, 7, and 8: TNF assessment: ELISA established in the laboratory of Dr. Schumann using 2 monoclonal antibodies (Pharmingen Inc., USA). Recombinant LBP: produced in the lab of Dr. Schumann. Lipoproteins: isolated from sera of healthy young volunteers, isolated by density gradient centrifugation, monocytes isolated also from blood of healthy young volunteers
Again, serum lacking lipoproteins was unable to block LPS-induced TNF synthesis. The ability to block LPS-induced TNF synthesis could be restored by addition of isolated lipoproteins. […] Methodology as in example 4

Assay [6] concerns LPS effects. To be noted: high concentrations of LBP; cited from earlier work.
Assay [7] deals with spontaneous production of TNF and IL6 of whole blood. The assay is described as follows: Spontaneous production of TNF and IL6 in whole blood of patients with cachexia due to liver cirrhosis. It is filed as cell-based, human. To be noted: BPi 1 μg/ml, 8 experiments, p<0.05. Here is the method: as §1, §2
[8] abbreviates: 100 μg/ml UDCA, whole blood of healthy control subjects, 4 hours.
[9] abbreviates: 1 mg/ml UDCA, whole blood of healthy control subjects diluted 1:10, 4 hours at 37° C.

Turning to `C[C@H](CCC(=O)O)[C@H]1CC[C@H]2[C@@H]3[C@H](O)C[C@@H]4C[C@H](O)CC[C@]4(C)[C@H]3CC[C@]12C` [chenodeoxycholic acid], the “effectiveness on monocyte generated cytokine production in response to LPS” value in assay [1] is listed as “less effective”.

In the case of `C[C@H](CCC(=O)O)[C@H]1CC[C@H]2[C@@H]3[C@@H](O)C[C@@H]4C[C@H](O)CC[C@]4(C)[C@H]3CC[C@]12C` [UDCA, ursodeoxycholic acid], in assay [2] (setting [8]), the “reduction of LPS-stimulated IL6 production” value was 43% and the “reduction of LPS-stimulated TNF production” value worked out at 68%. Besides, in assay [2] (setting [9]), the “reduction of LPS-stimulated IL6 production” value was more than 95% and the “reduction of LPS-stimulated TNF production” value is recorded as more than 95%. In assay [3] (whole blood of 4 patients with cachexia due to liver cirrhosis), the “reduction of LPS-stimulated TNF production (on average)” value was more than 99%. The “reduction of LPS-stimulated IL6 production (on average)” value in assay [3] (whole blood of patients with cachexia due to liver cirrhosis) was found to be 97%.

B1: LBP: serum protein which binds to LPS; recombinant LBP produced in the lab of Dr. Schumann (protein, UniProt P18428 26-481, looked up)
Lipopolysaccharide-binding …: ANPGLVARITDKGLQYAAQEGLLALQSELLRITLPDFTGDLRIPHVGRGRYEFHSLNIHSCELLHSALRPVPGQGLSLSISDSSIRVQGRWKVRKSFFKLQGSFDVSVKGISISVNLLLGSESSGRPTVTASSCSSDIADVEVDMSGDLGWLLNLFHNQIESKFQKVLESRICEMIQKSVSSDLQPYLQTLPVTTEIDSFADIDYSLVEAPRATAQMLEVMFKGEIFHRNHRSPVTLLAAVMSLPEEHNKMVYFAISDYVFNTASLVYHEEGYLNFSITDDMIPPDSNIRLTTKSFRPFVPRLARLYPNMNLELQGSVPSAPLLNFSPGNLSVDPYMEIDAFVLLPSSSKEPVFRLSVATNVSATLTFNTSKITGFLKPGKVKVELKESKVGLFNAELLEALLNYYILNTFYPKFNDKLAEGFPLPLLKRVQLYDLGLQIHKDFLFLGANVQYMRV
Take B1: in assay [4], the “blocking of LPS effects in vitro” value is recorded as “completely block LPS effects”. Also, in assay [5] (high concentrations added to normal serum (containing lipoproteins)), the “LPS-stimulated TNF production in a monocyte stimulation system” value is given as “reduces LPS-stimulated TNF production”. In addition, the “inhibition of LPS activity (LPS-induced TNF production)” value in assay [5] (titrated into lipoprotein-deficient serum, high levels of LBP) was “inhibit LPS activity”. For the same molecule, the “blocking of LPS effects in a murine sepsis model” value in assay [6] is “completely block LPS effects”.

B2: BPi: protein found in human white blood cells that binds to and neutralises endotoxin (protein, UniProt P17213 32-487, looked up)
Bactericidal …: VNPGVVVRISQKGLDYASQQGTAALQKELKRIKIPDYSDSFKIKHLGKGHYSFYSMDIREFQLPSSQISMVPNVGLKFSISNANIKISGKWKAQKRFLKMSGNFDLSIEGMSISADLKLGSNPTSGKPTITCSSCSSHINSVHVHISKSKVGWLIQLFHKKIESALRNKMNSQVCEKVTNSVSSELQPYFQTLPVMTKIDSVAGINYGLVAPPATTAETLDVQMKGEFYSENHHNPPPFAPPVMEFPAAHDRMVYLGLSDYFFNTAGLVYQEAGVLKMTLRDDMIPKESKFRLTTKFFGTFLPEVAKKFPNMKIQIHVSASTPPHLSVQPTGLTFYPAVDVQAFAVLPNSSLASLFLIGMHTTGSMEVSAESNRLVGELKLDRLLLELKHSNIGPFPVELLQDIMNYIVPILVLPRVNEKLQKGFPLPTPARVQLYNVVLQPHQNFLLFGADVVYK
As for B2, in assay [7], the “spontaneous production of IL6 of whole blood” value was “reduced significantly” and the “spontaneous production of TNF of whole blood” value was “reduced significantly”.
